Results taken from patent publication US20120252852A1 (SANOFI, priority 2011, published 2012).

Columns and labels:
[1] = tested on: thrombosis; details: rodent, canine and porcine models; cited from earlier work
[2] = humans; cited from earlier work
[3] = molecular target: free factor Xa (Homo sapiens, UniProt P00742); details: cited from earlier work
[4] = Level of impurities in dependency on pH and storage time (1 mg/mL, autoclaved one time, stored at 40° C. and 75% RH, HPLC); format: physicochemical
Protocol: The appropriate pH value was adjusted by using sodium hydroxide solution (1 M sodium hydroxide) or diluted hydrochloric acid (1 M hydrochloric acid). The prepared vials were autoclaved one time and were stored at 40° C. and 75% RH (relative humidity).

[5] = Level of impurities in dependency on pH and repeated autoclaving (1 mg/mL Otamixaban, citrate composition of Example 5, HPLC); format: physicochemical
Protocol: The appropriate pH value was adjusted by using sodium hydroxide solution (1 M sodium hydroxide) or diluted hydrochloric acid (1 M hydrochloric acid). […] [table] […] The mobile phase was filtered through a 1.5 μm filter. Typically, add 500 mL of mobile phase A to 500 mL of acetonitrile. Mix and degas. [table] [table]

free factor Xa, sequence (P00742 235-488 limits assumed): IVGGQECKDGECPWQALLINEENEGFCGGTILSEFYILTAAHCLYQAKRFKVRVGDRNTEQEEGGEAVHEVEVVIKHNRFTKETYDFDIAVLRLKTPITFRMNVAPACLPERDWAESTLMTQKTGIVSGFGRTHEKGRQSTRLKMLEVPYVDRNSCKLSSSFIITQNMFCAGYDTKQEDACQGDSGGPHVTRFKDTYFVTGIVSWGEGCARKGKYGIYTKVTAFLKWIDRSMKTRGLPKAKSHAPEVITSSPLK
free factor Xa, sequence (P00742 41-179 partner limits assumed): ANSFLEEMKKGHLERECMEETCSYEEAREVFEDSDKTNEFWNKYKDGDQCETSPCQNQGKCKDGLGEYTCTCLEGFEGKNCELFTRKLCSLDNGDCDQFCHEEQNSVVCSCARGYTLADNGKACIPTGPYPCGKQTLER

- Level of Formula II versus pH over storage time ([4]; 40° C. and 75% RH): increased faster with lower pH
- Levels of Formula III versus pH over storage time ([4]; 40° C. and 75% RH): parallel at different pH values
- Increase of Formula II (carbamimidoyl-benzyl butyric acid) ([4]; pH 2.5, storage 0 months): 0.33%
- Increase of Formula II (carbamimidoyl-benzyl butyric acid) ([4]; pH 2.5, storage 1 month): 1.47%
- Increase of Formula II (carbamimidoyl-benzyl butyric acid) ([4]; pH 2.5, storage 3 months): 3.73%
- Increase of Formula II (carbamimidoyl-benzyl butyric acid) ([4]; pH 2.5, storage 6 months): 7.10%
- Increase of Formula II (carbamimidoyl-benzyl butyric acid) ([4]; pH 3.0, storage 0 months): 0.18%
- Increase of Formula II (carbamimidoyl-benzyl butyric acid) ([4]; pH 3.0, storage 1 month): 0.58%
- Increase of Formula II (carbamimidoyl-benzyl butyric acid) ([4]; pH 3.0, storage 3 months): 1.39%
- Increase of Formula II (carbamimidoyl-benzyl butyric acid) ([4]; pH 3.0, storage 6 months): 2.61%
- Increase of Formula II (carbamimidoyl-benzyl butyric acid) ([4]; pH 3.2, storage 0 months): 0.15%
- Increase of Formula III (carbamoyl-benzyl butyric acid methyl ester) ([4]; pH 3.2, storage 0 months): 0.76%
- Increase of Formula II (carbamimidoyl-benzyl butyric acid) ([4]; pH 3.2, storage 1 month): 0.41%
- Increase of Formula III (carbamoyl-benzyl butyric acid methyl ester) ([4]; pH 3.2, storage 1 month): 0.85%
- Increase of Formula II (carbamimidoyl-benzyl butyric acid) ([4]; pH 3.2, storage 3 months): 0.93%
- Increase of Formula III (carbamoyl-benzyl butyric acid methyl ester) ([4]; pH 3.2, storage 3 months): 1.00%
- Increase of Formula II (carbamimidoyl-benzyl butyric acid) ([4]; pH 3.2, storage 6 months): 1.74%
- Increase of Formula III (carbamoyl-benzyl butyric acid methyl ester) ([4]; pH 3.2, storage 6 months): 1.24%
- Increase of Formula II (carbamimidoyl-benzyl butyric acid) ([4]; pH 3.5, storage 0 months): 0.12%
- Increase of Formula II (carbamimidoyl-benzyl butyric acid) ([4]; pH 3.5, storage 1 month): 0.27%
- Increase of Formula II (carbamimidoyl-benzyl butyric acid) ([4]; pH 3.5, storage 3 months): 0.55%
- Increase of Formula II (carbamimidoyl-benzyl butyric acid) ([4]; pH 3.5, storage 6 months): 0.99%
- Increase of Formula II (carbamimidoyl-benzyl butyric acid) ([4]; pH 3.7, storage 0 months): 0.11%
- Increase of Formula II (carbamimidoyl-benzyl butyric acid) ([4]; pH 3.7, storage 1 month): 0.22%
- Increase of Formula II (carbamimidoyl-benzyl butyric acid) ([4]; pH 3.7, storage 3 months): 0.42%
- Increase of Formula II (carbamimidoyl-benzyl butyric acid) ([4]; pH 3.7, storage 6 months): 0.72%
- Increase of Formula II (carbamimidoyl-benzyl butyric acid) ([4]; pH 4.0, storage 0 months): 0.12%
- Increase of Formula II (carbamimidoyl-benzyl butyric acid) ([4]; pH 4.0, storage 1 month): 0.18%
- Increase of Formula II (carbamimidoyl-benzyl butyric acid) ([4]; pH 4.0, storage 3 months): 0.32%
- Increase of Formula II (carbamimidoyl-benzyl butyric acid) ([4]; pH 4.0, storage 6 months): 0.52%
- Increase of Formula II (carbamimidoyl-benzyl butyric acid) ([4]; pH 4.2, storage 0 months): 0.13%
- Increase of Formula II (carbamimidoyl-benzyl butyric acid) ([4]; pH 4.2, storage 1 month): 0.18%
- Increase of Formula II (carbamimidoyl-benzyl butyric acid) ([4]; pH 4.2, storage 3 months): 0.27%
- Increase of Formula II (carbamimidoyl-benzyl butyric acid) ([4]; pH 4.2, storage 6 months): 0.43%
- Increase of Formula II (carbamimidoyl-benzyl butyric acid) ([4]; pH 4.5, storage 0 months): 0.15%
- Increase of Formula II (carbamimidoyl-benzyl butyric acid) ([4]; pH 4.5, storage 1 month): 0.20%
- Increase of Formula II (carbamimidoyl-benzyl butyric acid) ([4]; pH 4.5, storage 3 months): 0.30%
- Increase of Formula II (carbamimidoyl-benzyl butyric acid) ([4]; pH 4.5, storage 6 months): 0.44%
- Increase of Formula II (carbamimidoyl-benzyl butyric acid) ([4]; pH 4.7, storage 0 months): 0.20%
- Increase of Formula II (carbamimidoyl-benzyl butyric acid) ([4]; pH 4.7, storage 1 month): 0.25%
- Increase of Formula II (carbamimidoyl-benzyl butyric acid) ([4]; pH 4.7, storage 3 months): 0.36%
- Increase of Formula II (carbamimidoyl-benzyl butyric acid) ([4]; pH 4.7, storage 6 months): 0.52%
- Increase of Formula III (carbamoyl-benzyl butyric acid methyl ester) ([5]; pH 2.5, 0 autoclaving): 0.39%
- Increase of Formula III (carbamoyl-benzyl butyric acid methyl ester) ([5]; pH 2.5, 1 autoclaving): 0.71%
- Increase of Formula III (carbamoyl-benzyl butyric acid methyl ester) ([5]; pH 2.5, 2 autoclaving): 1.02%
- Increase of Formula III (carbamoyl-benzyl butyric acid methyl ester) ([5]; pH 2.5, 3 autoclaving): 1.32%
- Increase of Formula III (carbamoyl-benzyl butyric acid methyl ester) ([5]; pH 3.0, 0 autoclaving): 0.39%
- Increase of Formula III (carbamoyl-benzyl butyric acid methyl ester) ([5]; pH 3.0, 1 autoclaving): 0.74%
- Increase of Formula III (carbamoyl-benzyl butyric acid methyl ester) ([5]; pH 3.0, 2 autoclaving): 1.09%
- Increase of Formula III (carbamoyl-benzyl butyric acid methyl ester) ([5]; pH 3.0, 3 autoclaving): 1.43%
- Increase of Formula III (carbamoyl-benzyl butyric acid methyl ester) ([5]; pH 3.2, 0 autoclaving): 0.39%
- Increase of Formula III (carbamoyl-benzyl butyric acid methyl ester) ([5]; pH 3.2, 1 autoclaving): 0.76%
- Increase of Formula III (carbamoyl-benzyl butyric acid methyl ester) ([5]; pH 3.2, 2 autoclaving): 1.13%
- Increase of Formula III (carbamoyl-benzyl butyric acid methyl ester) ([5]; pH 3.2, 3 autoclaving): 1.50%
- Increase of Formula III (carbamoyl-benzyl butyric acid methyl ester) ([5]; pH 3.5, 0 autoclaving): 0.39%
- Increase of Formula III (carbamoyl-benzyl butyric acid methyl ester) ([5]; pH 3.5, 1 autoclaving): 0.81%
- Increase of Formula III (carbamoyl-benzyl butyric acid methyl ester) ([5]; pH 3.5, 2 autoclaving): 1.23%
SMILES: COC(=O)[C@H](Cc1cccc(C(=N)N)c1)[C@@H](C)NC(=O)c1ccc(-c2cc[n+]([O-])cc2)cc1 (mixture of isomers) [Otamixaban, Methyl (2R,3R)-2-{3-[amino(imino)methyl]benzyl}-3-{[4-(1-oxidopyridin-4-yl)benzoyl]amino}butanoate]
- Efficacy in models of thrombosis [1]: highly efficacious
- Clinical efficacy, safety and tolerability [2]: efficacious, safe and well tolerated
- Inhibition of free factor Xa [3]: inhibited
